According to ChEMBL document CHEMBL3600362, “Synthesis of CNS active thyrotropin-releasing hormone (TRH)-like peptides: Biological evaluation and effect on cognitive impairment induced by cerebral ischemia in mice” (Bioorg Med Chem, 2015):

Legend:
[1] = test system: HEK293; assay: Selectivity index, ratio of EC50 for agonist activity at mouse TRH-R1 expressed in HEK293 cells to EC50 for agonist activity at mouse TRH-R2 expressed in HEK293 cells; type: cell-based
[2] = target: T1, Thyrotropin-releasing hormone receptor 2 (Mus musculus, UniProt Q9ERT1); assay: Agonist activity at mouse TRH-R2 expressed in HEK293 cells assessed as induction of changes in intracellular Ca2+ level by FLIPR method; type: functional, cell-based
T1 sequence (Q9ERT1 whole entry): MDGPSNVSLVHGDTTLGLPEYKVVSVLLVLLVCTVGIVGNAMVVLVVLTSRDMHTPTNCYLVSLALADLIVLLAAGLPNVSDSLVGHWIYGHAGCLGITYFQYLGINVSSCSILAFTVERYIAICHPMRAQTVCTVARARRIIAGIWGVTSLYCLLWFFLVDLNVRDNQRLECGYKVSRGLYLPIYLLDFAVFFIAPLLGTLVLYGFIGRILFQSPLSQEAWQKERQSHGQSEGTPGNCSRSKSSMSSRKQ

[3] = test system: Mus musculus; assay: Reduction in pentobarbital-induced sleeping time in Swiss mouse at 10 umol/kg, iv; type: functional
[4] = target: T2, Thyrotropin-releasing hormone receptor (Mus musculus, UniProt P21761); assay: Agonist activity at mouse TRH-R1 expressed in HEK293 cells assessed as induction of changes in intracellular Ca2+ level by FLIPR method; type: functional, cell-based
T2 sequence (P21761 whole entry): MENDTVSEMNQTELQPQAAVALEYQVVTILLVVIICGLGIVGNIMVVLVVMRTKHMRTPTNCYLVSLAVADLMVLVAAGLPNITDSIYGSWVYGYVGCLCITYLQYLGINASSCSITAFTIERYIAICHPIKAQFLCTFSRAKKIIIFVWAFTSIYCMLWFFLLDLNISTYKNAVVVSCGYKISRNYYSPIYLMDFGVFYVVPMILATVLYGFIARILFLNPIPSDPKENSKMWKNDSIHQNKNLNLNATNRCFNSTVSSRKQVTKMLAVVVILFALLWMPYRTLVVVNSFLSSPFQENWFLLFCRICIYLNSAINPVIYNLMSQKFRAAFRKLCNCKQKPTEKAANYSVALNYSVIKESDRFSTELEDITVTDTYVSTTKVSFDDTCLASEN

[5] = target: T1, Thyrotropin-releasing hormone receptor 2; assay: Displacement of [3H]-1-MeHis-TRH from mouse TRH-R2 expressed in HEK293 cells incubated up to 4 hrs by scintillation counting method; type: cell-based
[6] = target: T2, Thyrotropin-releasing hormone receptor; assay: Displacement of [3H]-1-MeHis-TRH from mouse TRH-R1 expressed in HEK293 cells incubated up to 4 hrs by scintillation counting method; type: cell-based
[7] = Half life in human plasma; type: ADME, cell-free
[8] = target: T3, TRH-degrading ectoenzyme (Mus musculus, UniProt Q8K093); assay: Stability assessed as mouse recombinant TRH-degrading ectoenzyme-mediated compound degradation at 1 mM measured within 18 hrs by HPLC method; type: ADME; settings: read-out: Drug degradation
T3 sequence (Q8K093 whole entry): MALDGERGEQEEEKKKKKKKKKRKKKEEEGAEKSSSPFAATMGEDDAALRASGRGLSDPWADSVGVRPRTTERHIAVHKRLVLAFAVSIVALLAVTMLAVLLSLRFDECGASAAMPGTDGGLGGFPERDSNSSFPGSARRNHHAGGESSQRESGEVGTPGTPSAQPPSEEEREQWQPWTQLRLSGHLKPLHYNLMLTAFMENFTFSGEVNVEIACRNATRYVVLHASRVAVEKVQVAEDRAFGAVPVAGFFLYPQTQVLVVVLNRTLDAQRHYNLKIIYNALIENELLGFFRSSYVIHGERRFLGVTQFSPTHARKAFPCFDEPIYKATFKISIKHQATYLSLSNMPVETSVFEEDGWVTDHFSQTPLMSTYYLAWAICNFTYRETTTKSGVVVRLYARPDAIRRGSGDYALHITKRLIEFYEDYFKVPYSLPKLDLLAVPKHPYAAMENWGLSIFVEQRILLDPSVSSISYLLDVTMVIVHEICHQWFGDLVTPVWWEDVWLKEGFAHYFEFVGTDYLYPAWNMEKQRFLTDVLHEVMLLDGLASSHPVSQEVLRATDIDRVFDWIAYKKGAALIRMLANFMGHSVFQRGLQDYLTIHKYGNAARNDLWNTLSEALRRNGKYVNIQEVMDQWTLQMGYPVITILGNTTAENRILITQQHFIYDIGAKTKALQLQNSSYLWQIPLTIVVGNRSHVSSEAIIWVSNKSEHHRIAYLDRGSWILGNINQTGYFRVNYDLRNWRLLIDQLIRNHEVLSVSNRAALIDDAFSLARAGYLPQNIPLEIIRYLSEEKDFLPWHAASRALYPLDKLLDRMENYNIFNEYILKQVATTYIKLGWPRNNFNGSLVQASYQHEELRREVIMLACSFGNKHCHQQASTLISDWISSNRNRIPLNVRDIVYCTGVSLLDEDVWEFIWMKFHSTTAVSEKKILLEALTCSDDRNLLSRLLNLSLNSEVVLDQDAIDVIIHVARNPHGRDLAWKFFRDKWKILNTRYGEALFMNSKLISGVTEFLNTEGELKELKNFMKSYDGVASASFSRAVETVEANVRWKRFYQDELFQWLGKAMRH

Row | Compound | Ratio EC50 [1] | EC50 [2] | inhibition in vivo at 10 µmol/kg [3] | EC50 [4] | IC50 [5] | IC50 [6] | EC50 ([4]; hek293) | half-life [7] | metabolised at 18 h, 1000 µM [8]
1 | CCCc1nc(C[C@H](NC(=O)C2CCCCN2)C(=O)N2CCC[C@H]2C(N)=O)c[nH]1 (single isomer, unassigned) | 235 | 4 nM | 67.4% | 940 nM | > 50000 nM | > 50000 nM | – | – | –
2 | NC(=O)[C@@H]1CCCN1C(=O)[C@H](Cc1c[nH]cn1)NC(=O)[C@@H]1CCC(=O)N1 [PROTIRELIN] | 1.9 | – | 51.1% | – | – | – | 1 nM | – | –
3 | NC(=O)[C@@H]1CCCN1C(=O)[C@H](Cc1nc(Br)[nH]c1Br)NC(=O)c1nccnc1N | 4.8 | 290 nM | 12.2% | 1410 nM | > 50000 nM | > 50000 nM | – | – | –
4 | CCn1c(I)nc(C[C@H](NC(=O)c2cnccn2)C(=O)N2CCC[C@H]2C(N)=O)c1I | 7.5 | 960 nM | 1.8% | 7210 nM | > 50000 nM | > 50000 nM | – | – | –
5 | NC(=O)[C@@H]1CCCN1C(=O)[C@H](Cc1nc[nH]c1Br)NC(=O)c1cnccn1 | 82.9 | 48 nM | 32.8% | 3980 nM | > 50000 nM | > 50000 nM | – | – | –
6 | NC(=O)[C@@H]1CCCN1C(=O)[C@H](Cc1nc[nH]c1Br)NC(=O)c1nccnc1N | 47.8 | 6 nM | 29.5% | 287 nM | > 50000 nM | > 50000 nM | – | – | –
7 | CCCc1nc(C[C@H](NC(=O)c2nccnc2N)C(=O)N2CCC[C@H]2C(N)=O)c[nH]1 | 10.5 | 120 nM | 52.2% | 1560 nM | > 50000 nM | > 50000 nM | – | – | –
8 | NC(=O)[C@@H]1CCCN1C(=O)[C@H](Cc1nc(I)n(Cc2ccccc2)c1I)NC(=O)c1cnccn1 | 32.6 | 30 nM | 74.8% | 980 nM | > 50000 nM | > 50000 nM | – | – | –
9 | CCCc1nc(C[C@H](NC(=O)c2cnc(C)cn2)C(=O)N2CCC[C@H]2C(N)=O)c[nH]1 | 1.1 | 15 nM | 4.1% | 17 nM | > 50000 nM | > 50000 nM | – | – | –
10 | NC(=O)[C@@H]1CCCN1C(=O)[C@H](Cc1nc[nH]c1Cl)NC(=O)c1cnccn1 | 36.5 | 530 nM | 29.8% | 19300 nM | > 50000 nM | > 50000 nM | – | – | –
11 | NC(=O)[C@@H]1CCCN1C(=O)[C@H](Cc1cnc[nH]1)NC(=O)[C@@H]1CCC(=O)N1 [PROTIRELIN] | – | 0.52 nM | – | – | 7 nM | 2.6 nM | – | 2 min | 80%
12 | CC(C)c1nc(C[C@H](NC(=O)C2CCCCN2)C(=O)N2CCC[C@H]2C(N)=O)c[nH]1 (single isomer, unassigned) | 1.3 | 770 nM | 42.7% | 1000 nM | > 50000 nM | > 50000 nM | – | – | –
13 | Cc1cnc(C(=O)N[C@@H](Cc2nc[nH]c2Br)C(=O)N2CCC[C@H]2C(N)=O)cn1 | 12.4 | 40 nM | 23.2% | 498 nM | > 50000 nM | > 50000 nM | – | – | –
14 | CCCc1nc(C[C@H](NC(=O)c2cnccn2)C(=O)N2CCC[C@H]2C(N)=O)c[nH]1 | 2.5 | 60 nM | 63.6% | 150 nM | > 50000 nM | > 50000 nM | – | – | –
15 | Cc1cnc(C(=O)N[C@@H](Cc2nc(Br)[nH]c2Br)C(=O)N2CCC[C@H]2C(N)=O)cn1 | 0.77 | 100 nM | 29% | 77 nM | > 50000 nM | > 50000 nM | – | – | –
16 | Cc1cnc(C(=O)N[C@@H](Cc2nc(I)n(Cc3ccccc3)c2I)C(=O)N2CCC[C@H]2C(N)=O)cn1 | 14.8 | 50 nM | 50.1% | 740 nM | > 50000 nM | > 50000 nM | – | – | –
17 | Cn1cnc(C[C@H](NC(=O)c2cnccn2)C(=O)N2CCC[C@H]2C(N)=O)c1Br | 11.3 | 30 nM | 32.3% | 340 nM | > 50000 nM | > 50000 nM | – | – | –
18 | NC(=O)[C@@H]1CCCN1C(=O)[C@H](Cc1nc(I)[nH]c1I)NC(=O)c1cnccn1 | 36.3 | 310 nM | 1.5% | 11300 nM | > 50000 nM | > 50000 nM | – | – | –
